# Results reported in PubChem BioAssay (NCI).
#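 Abbreviation: GI50, concentration required for 50% inhibition of growth. TGI marks complete inhibition of growth.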
# Legend:
# Assay in all cases: NCI anticancer screen, dose series, 384-well format
# BT-549 breast = system: BT-549 breast
# OVCAR-8 ovarian = system: OVCAR-8 ovarian
# MDA-MB-435 melanoma = system: MDA-MB-435 melanoma
# SNB-19 CNS = system: SNB-19 CNS
# IGROV1 ovarian = system: IGROV1 ovarian
# ACHN renal = system: ACHN renal
# PC-3 prostate = system: PC-3 prostate
# SW-620 colon = system: SW-620 colon
# UACC-257 melanoma = system: UACC-257 melanoma
# OVCAR-5 ovarian = system: OVCAR-5 ovarian
# HL-60(TB) leukemia = system: HL-60(TB) leukemia
# SF-539 CNS = system: SF-539 CNS
# CAKI-1 renal = system: CAKI-1 renal
smiles,measurement,setting,value
CCCS(=O)(=O)Nc1ccc(F)c(C(=O)c2c[nH]c3ncc(-c4ccc(Cl)cc4)cc23)c1F,GI50,BT-549 breast,5.9 µM
same,TGI,BT-549 breast,19.2 µM
same,GI50,OVCAR-8 ovarian,7.8 µM
same,TGI,OVCAR-8 ovarian,15.7 µM
same,GI50,MDA-MB-435 melanoma,0.281 µM
same,TGI,MDA-MB-435 melanoma,14.6 µM
same,GI50,SNB-19 CNS,8.27 µM
same,TGI,SNB-19 CNS,23.4 µM
same,GI50,IGROV1 ovarian,1.87 µM
same,TGI,IGROV1 ovarian,8.76 µM
same,GI50,ACHN renal,5.39 µM
same,TGI,ACHN renal,19.5 µM
same,GI50,PC-3 prostate,8.55 µM
same,TGI,PC-3 prostate,21.3 µM
same,GI50,SW-620 colon,4.61 µM
same,TGI,SW-620 colon,23.3 µM
same,GI50,UACC-257 melanoma,0.347 µM
same,GI50,OVCAR-5 ovarian,4.41 µM
same,TGI,OVCAR-5 ovarian,21.3 µM
same,GI50,HL-60(TB) leukemia,0.902 µM
same,TGI,HL-60(TB) leukemia,5.03 µM
same,GI50,SF-539 CNS,4.33 µM
same,TGI,SF-539 CNS,10.5 µM
same,GI50,CAKI-1 renal,3.69 µM
same,TGI,CAKI-1 renal,10.5 µM
